Laboratory results taken from US6617343B1, “Hypoglycemic N,N-arylsulfonylglycine compounds” (Eli Lilly and Company, priority 1999, dated 2003).

Legend:
[1] = system: Male obese-diabetic viable yellow (AvY) mice; assay: Hypoglycemic efficacy: blood glucose in obese-diabetic viable yellow mice fed compound admixed in chow; format: in vivo; conditions: dose .03 weight percent in diet; for % BG14 (BG0 = 100): blood glucose at day 14 as percent of initial value
Procedure: Male obese-diabetic viable yellow (AvY) mice were divided into two groups of 6 each. One group was fed repelletized purina 5008 Chow and the second group was fed repelletized Purina 5008 Chow, admixed with varying doses of the candidate compound. Blood samples were taken before the experiment was initiated and 7 and 14 days after initiation. Body weight and food consumption were monitored. The blood glucose level after 7 or 14 days of treatment was measured and recorded as a percent of the initial value, compared to the untreated control (first) group. The results are presented in the table 1 below; and include the dose of the candidate compound as a weight percent of the amount incorporated into the diet. Also in the table is a representative value for a positive control (a known hypoglycemic agent reported by a Takeda group [J. Med. Chem., 35, 2617]) administered in the same way as a canditate compound of the present invention.
BG means blood glucose level; BG0 means blood glucose level at day zero and BG14 means blood glucose level at day 14 accordingly.

CC(C)S(=O)(=O)N(CC(=O)O)c1ccc(OCCc2coc(-c3ccccc3)n2)cc1 [Example 1, N-[4-(2-(Phenyloxazol-4yl)ethoxyl]phenyl)-N-isopropyl Sulfonylglycine]
% BG14 (BG0 = 100) [1]: 53.1% | melting point: 136 to 139 °C

CS(=O)(=O)N(CC(=O)O)c1ccc(OCCc2coc(-c3ccccc3)n2)cc1 [Example 2, N-4[-(2-(Phenyloxazol-4yl)ethoxy)phenyl]-N-methylsufonyl-glycine]
% BG14 (BG0 = 100) [1]: 76.4% | melting point: 200 to 201 °C

CS(=O)(=O)N(CC(=O)[O-])c1ccc(OCCc2coc(-c3ccccc3)n2)cc1.[Na+] [Example 3, Sodium N-(4-(2-Phenyl-4-oxazolylethoxy)phenyl)-N-methylsulfonylglycinate]
% BG14 (BG0 = 100) [1]: 57.9%

CN(C)S(=O)(=O)N(CC(=O)O)c1ccc(OCCc2coc(-c3ccccc3)n2)cc1 [Example 4, N-[4-(2-(Phenyloxazol-4yl)ethoxy)phenyl]-N-N′N′-dimethyl aminosulfonylglycine]
% BG14 (BG0 = 100) [1]: 70.1% | melting point: 154 to 156 °C

O=C(O)CN(c1ccc(OCCc2coc(-c3ccccc3)n2)cc1)S(=O)(=O)Cc1ccccc1 [Example 5, N-[4-(2-(phenyloxazol-4yl)ethoxy)phenyl]-N-phenylmethyl sulfonylglycine]
% BG14 (BG0 = 100) [1]: 77.0% | melting point: 147 to 149 °C

CS(=O)(=O)N(CC(=O)O)c1ccc2oc(Cc3ccc4ccccc4c3)cc2c1 [Example 6, N-[5-(-2-(2-naphthylmethyl)benzofuranyl)]-N-methylsulfonylglycine]
% BG14 (BG0 = 100), (day 7) ([1]; blood glucose at day 7 as percent of initial value): 93.1 (day 7) % | melting point: 160 to 165 °C (dec.)
